The values below come from US7175872B2, “Pyridinium-Betain compounds for use as taste modulators” (Nestec S.A., priority 2002, dated 2007).

Common to all, as to type: in vivo
One assay concerns sweet taste of sucrose. Nature of the assay: Sweet taste detection threshold of sucrose/Pyridinium-Betaine mixtures (triangle test, sensory panel). On the set-up: key to Threshold decrease: fold decrease of sweet threshold vs pure sucrose. As to the method:
(§1) • Sensory panel training: […] Sensory analyses were performed in a sensory panel room at 22-25° C. on three different sessions. • Taste thresholds: The taste thresholds of the tastants or mixtures containing basic tastants plus Pyridinium-Betains were determined in a triangle test using Evian® mineral water as the solvent at a defined pH ([…] and H.-D. Belitz, Z. Lebensm. Unters. Forsch. 1975, 159, 65-72). The samples (3 mL) were presented in order of increasing concentrations (serial 1:1 dilutions). The threshold values evaluated in two different sessions were averaged. […] The taste intensities of aqueous (Evian®) solutions containing a basic tastant, such as glucose and MSG, for example, in constant concentrations and the compounds of the general formula (A), for example […], in various concentrations were compared with those of a solution containing the basic tastant only. To achieve this, triangle tests were performed with two glass vials containing the basic tastant in constant concentrations, and one glass vial containing a stepwise 1:1-diluted mixture of basic […]. […] The relative taste strength (taste enhancing factor) of a mixture containing the basic […] was related to the basic tastants glucose, MSG, or other tastants, respectively, as standard substances, and was determined as the ratio of the concentrations c of iso-intensely tasting solutions of the basic tastant, such as glucose (glc), and the mixture containing tastant plus Pyridinium-Betain, […])=[…] This taste enhancing effect is illustrated in examples. The sweet taste thresholds of equimolar mixtures of sweet tasting compounds and various Pyridinium-Betaines were determined by a triangle test using EVIAN® mineral water as the solvent. The sensorial evaluations were performed at different pH values. The equimolar mixture of […] and sucrose at pH 7.0 was evaluated with a 4-fold lower sweet threshold concentration than pure sucrose (Table 1).

The test system of another assay is umami taste of MSG. Nature of the assay: Umami taste detection threshold of MSG/Pyridinium-Betaine mixtures (triangle test, sensory panel). As to the method:
(§2) • Sensory panel training: […] Sensory analyses were performed in a sensory panel room at 22-25° C. on three different sessions. • Taste thresholds: The taste thresholds of the tastants or mixtures containing basic tastants plus Pyridinium-Betains were determined in a triangle test using Evian® mineral water as the solvent at a defined pH ([…] and H.-D. Belitz, Z. Lebensm. Unters. Forsch. 1975, 159, 65-72). The samples (3 mL) were presented in order of increasing concentrations (serial 1:1 dilutions). The threshold values evaluated in two different sessions were averaged. […] The taste intensities of aqueous (Evian®) solutions containing a basic tastant, such as glucose and MSG, for example, in constant concentrations and the compounds of the general formula (A), for example […], in various concentrations were compared with those of a solution containing the basic tastant only. To achieve this, triangle tests were performed with two glass vials containing the basic tastant in constant concentrations, and one glass vial containing a stepwise 1:1-diluted mixture of basic […]. […] The relative taste strength (taste enhancing factor) of a mixture containing the basic […] was related to the basic tastants glucose, MSG, or other tastants, respectively, as standard substances, and was determined as the ratio of the concentrations c of iso-intensely tasting solutions of the basic tastant, such as glucose (glc), and the mixture containing tastant plus Pyridinium-Betain, […])=[…] […] This taste enhancing effect is illustrated in examples. Pyridinium-Betaines not only enhance the sweet taste perception, but also the umami taste.

The test system of another assay is salty taste of NaCl. Nature of the assay: Salt taste detection threshold of NaCl/Pyridinium-Betaine mixtures (triangle test, sensory panel). As to the method:
• Sensory panel training: […] Sensory analyses were performed in a sensory panel room at 22-25° C. on three different sessions. • Taste thresholds: The taste thresholds of the tastants or mixtures containing basic tastants plus Pyridinium-Betains were determined in a triangle test using Evian® mineral water as the solvent at a defined pH ([…] and H.-D. Belitz, Z. Lebensm. Unters. Forsch. 1975, 159, 65-72). The samples (3 mL) were presented in order of increasing concentrations (serial 1:1 dilutions). The threshold values evaluated in two different sessions were averaged. […] The taste intensities of aqueous (Evian®) solutions containing a basic tastant, such as glucose and MSG, for example, in constant concentrations and the compounds of the general formula (A), for example […], in various concentrations were compared with those of a solution containing the basic tastant only. […] The relative taste strength (taste enhancing factor) of a mixture containing the basic […] was related to the basic tastants glucose, MSG, or other tastants, respectively, as standard substances, and was determined as the ratio of the concentrations c of iso-intensely tasting solutions of the basic tastant, such as glucose (glc), and the mixture containing tastant plus Pyridinium-Betain, […])=[…] […] This taste enhancing effect is illustrated in examples.

The subject of another assay is sweet taste of L-alanine. Nature of the assay: Sweet taste detection threshold of L-alanine/Pyridinium-Betaine mixtures (triangle test, sensory panel). Particulars: L-alanine alone. As to the method:
as §2, with “Besides the two carbohydrates,” for “Pyridinium-Betaines not only enhance”, “sweet amino acid L-alanine was also tested with […]. Again, the best impact on sweet” for “sweet”, “perception was found for” for “perception, but also”, “mixture at pH 9.0, resulting in an 8-fold lower threshold.” for “umami taste.”

In another assay the test system is sweet taste of glucose. Nature of the assay: Sweet taste detection threshold of glucose/Pyridinium-Betaine mixtures (triangle test, sensory panel). Particulars: equimolar mixture with glucose, pH 7.0; for Threshold decrease: vs glucose in water 50.0 mmol/L. As to the method: as §1, with “1). […] is able to reduce the sweet threshold of glucose 16-fold at pH 7.0 and pH 9.0, whereas at pH 5.0 a gain the sweet taste perception […] (Table 2). […] Using the dipeptide derivative (S)-[…] as a taste-enhancer leads to a 16-fold threshold reduction compared to glucose.” for “1).”

Setting [1] is: sweet, vs sucrose alone (Table 10).
Where [2] appears, read: umami, MSG and mixtures with Alapyridaine enantiomers (Table 9), pH not stated.
The mark [3] stands for this setting: equimolar mixture with sucrose, pH 7.0.
The mark [4] stands for this setting: equimolar mixture with sucrose, pH 9.0.
The mark [5] stands for this setting: equimolar mixture with sucrose, pH 9.0, vs sucrose in water 12.5 mmol/L.
Where [6] appears, read: equimolar mixture with MSG, pH 7.0.
Where [7] appears, read: equimolar mixture with MSG, pH 7.0, vs MSG in water 1.5 mmol/L.

Where a name gives a salt, the structure may show the parent alone.

As to `C[C@H](C(=O)[O-])[n+]1cc(O)ccc1CO` [(−)-(R)-Alapyridaine, (R)-N-(1-carboxyethyl)-3-hydroxy-6-hydroxymethyl-pyridinium inner salt], the Threshold decrease result is given as “does not alter the sweet taste perception of sucrose” in the assay with sweet taste of sucrose (setting [1]); “does not have any taste enhancing impact” with umami taste of MSG (umami, vs MSG alone (Table 9)); “did not alter the taste of the aqueous salt solution” with salty taste of NaCl (salty, vs NaCl alone (Table 11)).

With `N[C@@H](CCC(=O)O)C(=O)[O-].[Na+]` [MSG, monosodium glutamate, reference compound], the “threshold of MSG in water” value in the assay with umami taste of MSG (MSG alone) is given as “^aThe threshold of MSG in water is 1.5 mmol/L”. Besides, the Taste quality result with umami taste of MSG (MSG and mixtures with Alapyridaine enantiomers (Table 9), pH not stated) was “umami”. Moreover, in the assay with umami taste of MSG (setting [2]), the Detection threshold was found to be 1.5 mmol/kg water.

As to `OC[C@H]1O[C@@](CO)(O[C@H]2O[C@H](CO)[C@@H](O)[C@H](O)[C@H]2O)[C@@H](O)[C@@H]1O` [Sucrose, sucrose, reference compound], in the assay on sweet taste of sucrose (sucrose alone), the “threshold of sucrose in water” value is recorded as “^aThe threshold of sucrose in water is 12.5 mmol/L”. Besides, in the assay on sweet taste of sucrose (sucrose and mixtures with Alapyridaine enantiomers (Table 10), pH not stated), the Taste quality entry is given as “sweet”. The Detection threshold with sweet taste of sucrose (sweet, sucrose and mixtures with Alapyridaine enantiomers (Table 10), pH not stated) was found to be 12.5 mmol/kg water.

As to `C[C@H](N)C(=O)O` [L-alanine, reference compound], the “threshold of L-alanine in water” value in the assay on sweet taste of L-alanine is listed as “^aThe threshold of L-alanine in water is 12.5 mmol/L”.

For `O=C(O)CCC(C(=O)[O-])[n+]1cc(O)ccc1CO` (stereo not shown) [Glupyridaine, N-(1,3-dicarboxypropyl)-3-hydroxy-6-hydroxymethyl-pyridinium inner salt], the Sweet detection threshold in the assay with sweet taste of sucrose (setting [3]) is 12.0 mmol/kg water; in the assay on sweet taste of sucrose (setting [4]) it was 6.0 mmol/kg water. Further, the Taste quality entry in the assay with sweet taste of sucrose (setting [3]) is “sweet”; in the assay on sweet taste of sucrose (setting [4]), “sweet”; with umami taste of MSG (setting [6]), “umami”. Further, the Threshold decrease with sweet taste of sucrose (setting [5]) is listed as 2; in the assay with umami taste of MSG (setting [7]) it was 4.0. Also, the Umami detection threshold in the assay on umami taste of MSG (setting [6]) is recorded as 0.4 mmol/kg water.

As to `C[C@@H](C(=O)[O-])[n+]1cc(O)ccc1CO` [(+)-(S)-Alapyridaine, (S)-N-(1-carboxyethyl)-3-hydroxy-6-hydroxymethyl-pyridinium inner salt], in the assay with sweet taste of sucrose (setting [1]), the Threshold decrease is 8. In addition, the Detection threshold in the assay with umami taste of MSG (setting [2]) is reported as 0.2 mmol/kg water.

For `O=C([O-])[C@H](Cc1ccccc1)[n+]1cc(O)ccc1CO` [Phepyridaine], the results for the Sweet detection threshold in the assay with sweet taste of sucrose (setting [3]), in the assay with sweet taste of sucrose (setting [4]) and in the assay with sweet taste of glucose were 3.0 mmol/kg water, 1.5 mmol/kg water and 3.0 mmol/kg water, respectively. The Taste quality entry is on record as “sweet” in the assay on sweet taste of sucrose (setting [3]); “sweet” with sweet taste of sucrose (setting [4]); “sweet” in the assay on sweet taste of glucose; “umami” in the assay on umami taste of MSG (setting [6]); “salty” in the assay with salty taste of NaCl (mixture with NaCl, pH 7.0). In addition, the Threshold decrease with sweet taste of sucrose (equimolar mixture with sucrose, pH 7.0, vs sucrose in water 12.5 mmol/L) was found to be 4.0; in the assay with sweet taste of sucrose (setting [5]) it was 8.0; in the assay on sweet taste of glucose, 16.0; in the assay on umami taste of MSG (setting [7]), 4.0; in the assay on salty taste of NaCl (mixture with NaCl, pH 7.0, vs NaCl in water 10.0 mmol/L) it was 5.0. In the assay on sweet taste of sucrose (mixture with sucrose), the “concentration above which a rubber-like off-taste is imparted” value is reported as “above 3 mmol/kg”. Also, the “concentration above which the sweetness is associated with a rubber-like taste” value in the assay with sweet taste of sucrose (mixture with sucrose) is “^bThe sweetness is associated with a rubber-like taste in concentrations higher than 3 mmol/L”. In the assay with umami taste of MSG (setting [6]), the Umami detection threshold is recorded as 0.4 mmol/kg water. Also, the Salt detection threshold in the assay with salty taste of NaCl (mixture with NaCl, pH 7.0) turned out to be 2.0 mmol/kg water.

For `O=C(C[n+]1cc(O)ccc1CO)N[C@@H](Cc1ccccc1)C(=O)[O-]` [(S)-GlyPhepyridaine, (S)-N-[N(1-carboxy-2-phenyl-ethyl)-carboxamido-methyl]-3-hydroxy-6-hydroxymethyl-pyridinium inner salt], in the assay with sweet taste of glucose, the Sweet detection threshold worked out at 3.0 mmol/kg water, the Taste quality result is listed as “sweet” and the Threshold decrease stood at 16. In the assay on umami taste of MSG (setting [6]), the Taste quality entry is “umami” and the Umami detection threshold was determined as 0.2 mmol/kg water. Further, the Threshold decrease with umami taste of MSG (setting [7]) is given as 8.0.
